Data: US20220289708A1, “SUBSTITUTED N-PHENYL URACILS, SALTS THEREOF AND THEIR USE AS HERBICIDAL AGENTS” (Bayer Aktiengesellschaft, priority 2019, published 2022)

Legend:
Type in all cases: in vivo
Abutilon theophrasti = assay: Post-emergence herbicidal action; conditions: rated visually after about 3 weeks vs untreated controls
Experimental: (§1) a. Post-Emergence Herbicidal Action and Crop Plant Compatibility Seeds of monocotyledonous and dicotyledonous weeds and crop plants were placed in sandy loam in plastic or wood-fiber pots, covered with soil and cultivated in a greenhouse under controlled growth conditions. 2 to 3 weeks after sowing, the test plants were treated at the one-leaf stage. The compounds of the invention, formulated in the form of wettable powders (WP) or as emulsion concentrates (EC), were then sprayed onto the green parts of the plants as aqueous suspension or emulsion with addition of 0.5% additive at a water application rate of 600 l/ha (converted). After the test plants had been kept in the greenhouse under optimum growth conditions for about 3 weeks, the activity of the preparations was rated visually in comparison to untreated controls. For example, 100% activity=the plants have died, 0% activity=like control plants. Tables A1 to A15 below show the effects of selected compounds of the general formula (I) according to Tables I.1 to I.36 on various harmful plants and at an application rate corresponding to 20 g/ha and less, which were obtained by the experimental procedure mentioned above.

Alopecurus myosuroides = assay: Post-emergence herbicidal action; conditions: rated visually after about 3 weeks vs untreated controls
Experimental: as §1

Amaranthus retroflexus = assay: Post-emergence herbicidal action; conditions: rated visually after about 3 weeks vs untreated controls
Experimental: as §1

Avena fatua = assay: Post-emergence herbicidal action; conditions: application rate 20 g/ha, rated visually after about 3 weeks vs untreated controls
Experimental: as §1

Digitaria sanguinalis = assay: Post-emergence herbicidal action; conditions: rated visually after about 3 weeks vs untreated controls
Experimental: as §1

Echinochloa crus-galli = assay: Post-emergence herbicidal action; conditions: rated visually after about 3 weeks vs untreated controls
Experimental: as §1

Lolium rigidum = assay: Post-emergence herbicidal action; conditions: rated visually after about 3 weeks vs untreated controls
Experimental: as §1

Matricaria inodora = assay: Post-emergence herbicidal action; conditions: rated visually after about 3 weeks vs untreated controls
Experimental: as §1

Pharbitis purpurea = assay: Post-emergence herbicidal action; conditions: rated visually after about 3 weeks vs untreated controls
Experimental: as §1

Setaria viridis = assay: Post-emergence herbicidal action; conditions: rated visually after about 3 weeks vs untreated controls
Experimental: as §1

Veronica persica = assay: Post-emergence herbicidal action
Experimental: as §1

Viola tricolor = assay: Post-emergence herbicidal action
Experimental: as §1

Oryza sativa = assay: Post-emergence crop plant compatibility
Experimental: a. Post-Emergence Herbicidal Action and Crop Plant Compatibility
as §1, with “Seeds” for “a. Post-Emergence Herbicidal Action and Crop Plant Compatibility Seeds”, “plants.” for “plants. Tables A1 to A15 below show the effects of selected compounds of the general formula (I) according to Tables I.1 to I.36 on various harmful plants and at an application rate corresponding to 20 g/ha and less, which were obtained by the experimental procedure mentioned above.”
Tables A16 to A19 below show the crop plant compatibilities of selected compounds of the general formula (I) according to Tables I.1 to I.36 at an application rate corresponding to 5 g/ha or 20 g/ha, which were obtained in experiments according to the experimental procedure mentioned above. Here, the observed effects on selected crop plants are stated in comparison to the untreated controls (values in %).

Hordeum murinum = assay: Post-emergence herbicidal action; conditions: application rate 20 g/ha
Experimental: as §1

Polygonum convolvulus = assay: Post-emergence herbicidal action
Experimental: as §1

Stellaria media = assay: Post-emergence herbicidal action; conditions: application rate 5 g/ha, rated visually after about 3 weeks vs untreated controls
Experimental: as §1

Row | Structure (SMILES) | Abutilon theophrasti (efficacy in %) (Abutilon theophrasti; application rate 20 g/ha) [%] | Alopecurus myosuroides (efficacy in %) (Alopecurus myosuroides; application rate 20 g/ha) [%] | Amaranthus retroflexus (efficacy in %) (Amaranthus retroflexus; application rate 20 g/ha) [%] | Avena fatua (efficacy in %) (Avena fatua) [%] | Digitaria sanguinalis (efficacy in %) (Digitaria sanguinalis; application rate 20 g/ha) [%] | Echinochloa crus-galli (efficacy in %) (Echinochloa crus-galli; application rate 20 g/ha) [%] | Lolium rigidum (efficacy in %) (Lolium rigidum; application rate 20 g/ha) [%] | Matricaria inodora (efficacy in %) (Matricaria inodora; application rate 20 g/ha) [%] | Pharbitis purpurea (efficacy in %) (Pharbitis purpurea; application rate 20 g/ha) [%] | Setaria viridis (efficacy in %) (Setaria viridis; application rate 20 g/ha) [%] | Veronica persica (efficacy in %) (Veronica persica; application rate 20 g/ha) [%] | Viola tricolor (efficacy in %) (Viola tricolor; application rate 20 g/ha) [%] | Oryza sativa (efficacy in %) (Oryza sativa; application rate 5 g/ha) [%] | Abutilon theophrasti (efficacy in %) (Abutilon theophrasti; application rate 5 g/ha) [%] | Amaranthus retroflexus (efficacy in %) (Amaranthus retroflexus; application rate 5 g/ha) [%] | Pharbitis purpurea (efficacy in %) (Pharbitis purpurea; application rate 5 g/ha) [%] | Polygonum convolvulus (efficacy in %) (Polygonum convolvulus; application rate 5 g/ha) [%] | Setaria viridis (efficacy in %) (Setaria viridis; application rate 5 g/ha) [%] | Stellaria media (efficacy in %) (Stellaria media) [%] | Polygonum convolvulus (efficacy in %) (Polygonum convolvulus; application rate 20 g/ha) [%] | further results
1 | Cn1c(C(F)(F)F)cc(=O)n(-c2cc(Sc3cccnc3OCC(=O)OC3COC3)c(Cl)cc2F)c1=O [I.1-115] | 100 | 100 | 100 | 80 | 100 | 100 | 80 | 100 | 100 | 100 | 100 | 100 | 20 |  |  |  |  |  |  |  | 
2 | Cn1c(C(F)(F)F)cc(=O)n(-c2cc(Sc3cccnc3OCC(=O)OCC#N)c(Cl)cc2F)c1=O [I.1-176] | 100 | 100 | 100 | 90 | 100 | 100 | 80 | 100 | 100 | 100 | 100 | 100 | 20 |  |  |  |  |  |  |  | 
3 | COCCOC(=O)CSc1ncccc1Sc1cc(-n2c(=O)cc(C(F)(F)F)n(C)c2=O)c(F)cc1Cl [I.10-1] |  |  |  | 80 |  |  |  |  |  |  | 90 |  |  | 80 | 80 | 80 | 100 | 80 | 100 |  | Alopecurus myosuroides (efficacy in %) (Alopecurus myosuroides; application rate 5 g/ha): 80%; Digitaria sanguinalis (efficacy in %) (Digitaria sanguinalis; application rate 5 g/ha): 80%; Echinochloa crus-galli (efficacy in %) (Echinochloa crus-galli; application rate 5 g/ha): 100%; Hordeum murinum (efficacy in %) (Hordeum murinum): 90%; Matricaria inodora (efficacy in %) (Matricaria inodora; application rate 5 g/ha): 90%; Viola tricolor (efficacy in %) (Viola tricolor; application rate 5 g/ha): 100%
4 | COCCCOC(=O)CSc1ncccc1Sc1cc(-n2c(=O)cc(C(F)(F)F)n(C)c2=O)c(F)cc1Cl [I.10-26] |  |  |  |  | 100 | 100 | 80 | 100 |  |  |  |  |  | 100 | 100 | 100 | 100 | 100 | 100 |  | Alopecurus myosuroides (efficacy in %) (Alopecurus myosuroides; application rate 5 g/ha): 80%; Veronica persica (efficacy in %) (Veronica persica; application rate 5 g/ha): 80%; Viola tricolor (efficacy in %) (Viola tricolor; application rate 5 g/ha): 100%
5 | CCOC(COC(=O)COc1ncccc1Oc1cc(-n2c(=O)cc(C(F)(F)F)n(C)c2=O)c(F)cc1[N+](=O)[O-])OCC [I.14-422] | 100 | 100 | 100 | 90 | 100 | 100 | 80 | 90 | 100 | 100 | 100 | 100 |  |  |  |  |  |  |  | 100 | Oryza sativa (efficacy in %) (Oryza sativa; application rate 20 g/ha): 20%
6 | COCCCOC(=O)COc1ncccc1Oc1cc(-n2c(=O)cc(C(F)(F)F)n(C)c2=O)c(F)cc1Cl [I.15-26, 3-Methoxypropyl [(3-{2-chloro-4-fluoro-5-[3-methyl-2,6-dioxo-4-(trifluoromethyl)-3,6-dihydropyrimidin-1(2H)-yl]phenoxy}pyridin-2-yl)oxy]acetate] |  | 90 |  | 90 |  |  |  |  |  |  |  |  |  | 100 | 100 | 100 | 100 | 100 | 100 |  | Digitaria sanguinalis (efficacy in %) (Digitaria sanguinalis; application rate 5 g/ha): 100%; Echinochloa crus-galli (efficacy in %) (Echinochloa crus-galli; application rate 5 g/ha): 100%; Hordeum murinum (efficacy in %) (Hordeum murinum): 100%; Lolium rigidum (efficacy in %) (Lolium rigidum; application rate 5 g/ha): 80%; Veronica persica (efficacy in %) (Veronica persica; application rate 5 g/ha): 100%; Viola tricolor (efficacy in %) (Viola tricolor; application rate 5 g/ha): 100%
7 | Cn1c(C(F)(F)F)cc(=O)n(-c2cc(Oc3cccnc3OCC(=O)OC3COC3)c(Br)cc2F)c1=O [I.16-115] | 100 | 100 | 100 | 80 | 100 | 100 | 100 | 100 | 100 | 100 | 100 | 100 | 20 |  |  |  |  |  |  | 100 | 
8 | CCS(=O)(=O)NCCOC(=O)COc1ncccc1Oc1cc(-n2c(=O)cc(C(F)(F)F)n(C)c2=O)c(F)cc1Br [I.16-421] | 100 | 100 | 100 | 100 | 100 | 100 | 90 | 100 | 100 | 100 | 100 | 100 | 20 |  |  |  |  |  |  | 100 | 
9 | CCOC(COC(=O)COc1ncccc1Oc1cc(-n2c(=O)cc(C(F)(F)F)n(C)c2=O)c(F)cc1Br)OCC [I.16-422] | 100 | 100 | 100 | 100 | 100 | 100 | 90 | 100 | 100 | 100 | 100 | 100 | 20 |  |  |  |  |  |  | 100 | 
10 | Cn1c(C(F)(F)F)cc(=O)n(-c2cc(Oc3cc(F)cnc3OCC(=O)OCC#N)c(Cl)cc2F)c1=O [I.36-176] | 100 | 100 | 100 | 80 | 100 | 100 | 80 | 90 | 100 | 100 | 90 | 100 | 20 |  |  |  |  |  |  | 100 | 
